Experimental data: patent publication US20240124454A1, “TRICYCLIC COMPOUND AND USE THEREOF” (NANJING ZAIMING PHARMACEUTICAL CO., LTD., priority 2020, published 2024)
Read-outs that look alike come from different tables or passages of the source.

What was measured:
[1] = tested on: HCT116 WT cells; experiment: Cell proliferation inhibition test (Cell-Titer Glo), HCT116 WT; format: cell-based, human; settings: Homo sapiens, HCT-116, 144 h, 6 days, read-out: HCT116 WT Antiproliferative activity IC50
Description: (§1) Test Example 3. Cell Proliferation Inhibition Test of Human Colon Cancer HCT116 WT Cells and HCT116 MTAP-1-Cells
(§2) The brief introduction of the test principle: After the test MAT2A inhibitor was incubated with cancer cells for a period of time, the effect of the test compound on cell proliferation was measured using a cell proliferation count method based on the ATP content.
(§3) Reference: The experiment referred to the method disclosed in patent WO2018045071.
(§4) Material and cell: HCT116 WT cells and HCT116 MTAP^−/− cells were purchased from KYinno; fetal bovine serum, McCoy's 5a culture medium, and penicillin-streptomycin were purchased from Gibco Company (U.S.), 96-well plates were purchased from Corning Company (U.S.), and the Cell-Titer Glo reagent was purchased from Promega Company (U.S.).
(§5) Cell culture: HCT116 WT cells and HCT116 MTAP^−/− cells were cultured with a McCoy's 5a medium containing 10% fetal bovine serum+1% penicillin-streptomycin at 37° C. with 5% CO2.
(§6) Cells at logarithmic growth phase were available for the experiment.
(§7) Cell proliferation activity test: The Cell-Titer Glo reagent was used to test the compound for inhibitory activity on proliferation of both HCT116 WT and HCT116 MTAP^−/− cell strains. The cells were adjusted to a concentration of 400 cells per well, seeded on a 96-well plate, and incubated overnight at 37° C. with 5% CO2.
(§8) In the experimental group, the test compound was diluted sequentially with DMSO and a culture medium, and transferred to a cell plate at a final concentration of 10 μM, 3-fold dilution. The cells were continuously cultured at 37° C. with 5% CO2 for 6 days. The Cell-Titer Glo reagent was added and the cell activity was measured.
(§9) A negative control group and a positive control group were respectively used as Bottom and Top. The negative control group was not added with cells, only added with the culture medium in the same volume, and other operations were consistent with those of the experimental group. The positive control group was not added with the test compound, only added with DMSO in the same volume, and other operations were consistent with those of the experimental group.
(§10) The % Compound inhibition was calculated and fitted to give the IC50 of the compound.
(§11) % Compound inhibition=1-100%×(Signal−Bottom)/(Top−Bottom).
(§12) Signal referred to the signal value of the experimental group, Bottom referred to the average signal value of the negative control group, and Top referred to the average signal value of the positive control group.
(§13) HCT116 MTAP^−/− cells are cells not expressing MTAP protein obtained by site-directed knockout of wild type HCT116 (HCT116 WT) cells by gene knockout. Synthetic lethality will occur due to MAT2A inhibition and the deletion of MTAP, thereby causing tumor cell death. The activity and selectivity of the MAT2A inhibitor can be evaluated by testing the antiproliferative activity of the MAT2A inhibitor on human colon cancer HCT116 MTAP^−/− cells and human colon cancer HCT116 WT.

[2] = tested on: HCT116 MTAP^−/− cells; experiment: Cell proliferation inhibition test (Cell-Titer Glo), HCT116 MTAP−/−; format: cell-based, human; settings: Homo sapiens, HCT-116, 144 h, 6 days, read-out: HCT116 MTAP−/− Antiproliferative activity IC50
Description: as §1, §2, §3, §4, §5, §6, §7, §8, §9, §10, §11, §12, §13

[3] = target: MAT2A (Homo sapiens (Human), UniProt P31153); experiment: MAT2A biochemical test (inorganic phosphate colorimetric, PiColorLock); settings: read-out: MAT2A inhibitory Activity IC50
Text: Test Example 1. Biochemical Test
The brief introduction of the test principle: L-methionine and ATP can be converted into SAM, inorganic phosphate, and inorganic diphosphate under the catalysis of MAT2A enzymes. The content of inorganic phosphate in the sample can be quantitatively determined by adding a developer such as ammonium molybdate or the like to the enzymatic reaction mixture, thereby reflecting the enzymatic activity of MAT2A.
as §3
Material: MAT2A screening kits were purchased from BPS bioscience (U.S.); 384-well plates were purchased from Corning Company (U.S.). • 1. MAT2A protein (Pharmaron Beijing Co., Ltd.); • 2. L-methionine (Sigma #M9625-5G) • 3. ATP (Sigma #A7699-1G) • 4. KCl (Sigma #60142-500ML-F) • 5. Tris (Sigma #T2663-1L) • 6. MgCl2 (Sigma #M1028) • 7. EDTA (Invitrogen #AM9260G) • 8. BSA (Sangon Biotech #A500023-0100) • 9. PiColorLock (abcam #ab270004)
Detection method: In the experimental group, the test compound was dissolved in DMSO, diluted to a final concentration of 10 μM using Echo, and diluted 3-fold. 80 nL of the dilution was transferred to a 384-well plate.
The experimental buffer (50 mM Tris, 50 mM KCl, 15 mM MgCl2, 100 μM EDTA, 0.005% BSA) was prepared. The MAT2A protein was diluted with the experimental buffer (at final concentration of […]). 40 μL of 2×MAT2A solution was added to the 384-well plate. The plate was centrifuged at 1000 rpm for 1 min and incubated at room temperature for 120 min.
L-methionine and ATP (the final concentration of L-methionine was […] and the final concentration of ATP was 400 μM) were diluted with the experimental buffer. 40 μL of 2×L-methionine and ATP solution was added to initiate the reaction. The plate was centrifuged at 1000 rpm for 1 min and incubated at room temperature for 90 min.
The PiColorLock™ reaction catalyst was mixed with the PiColorLock™ buffer at a ratio of 1:100 according to the instructions. 20 μL was added to each well, and the plate was shaken for 30 s. 8 μL stabilizing reagent was added, and the plate was shaken for 30 s. The signal values were measured after 30 min of incubation at room temperature.
as §9, with “MAT2A protein,” for “cells, only added with the culture medium in the same volume,”
as §10, §11, §12
Under the condition of this experiment, the inhibitory effect of the test compound on MAT2A can be expressed as the IC50 of the inhibition on the phosphate production level during the enzymatic reaction.

Chain of MAT2A (P31153 whole entry): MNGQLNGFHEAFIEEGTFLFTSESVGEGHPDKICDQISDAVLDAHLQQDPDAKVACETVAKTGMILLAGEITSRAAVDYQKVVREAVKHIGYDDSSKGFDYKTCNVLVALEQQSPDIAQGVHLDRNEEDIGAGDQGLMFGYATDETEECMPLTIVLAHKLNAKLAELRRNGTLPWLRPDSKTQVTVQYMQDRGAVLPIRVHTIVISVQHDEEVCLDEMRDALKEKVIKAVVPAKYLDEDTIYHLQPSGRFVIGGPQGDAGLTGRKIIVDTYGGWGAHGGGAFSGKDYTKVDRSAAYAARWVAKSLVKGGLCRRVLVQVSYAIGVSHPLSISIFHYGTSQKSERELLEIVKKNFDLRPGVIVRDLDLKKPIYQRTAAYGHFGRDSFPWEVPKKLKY

| Structure (SMILES) | IC50 [1] | IC50 [2] | IC50 ([3]; class symbols) | IC50 ([3]; numeric values) |
| --- | --- | --- | --- | --- |
| Cn1cnc2c(=O)n(-c3cccnc3C(F)(F)F)c3nc(C(F)(F)F)ccc3c21 (atropisomer, axis not shown) [Compound 41, 1-methyl-7-(trifluoromethyl)-5-(2-(trifluoromethyl)pyridin-3-yl)-1,5-dihydro-4H-imidazo[4,5-c][1,8]naphthyridin-4-one] | 7860 nM | 164 nM | < 100 nM | 56.8 nM |
| Cn1cnc2c(=O)n(-c3cccnc3C3CC3)c3nc(C(F)(F)F)ccc3c21 (atropisomer, axis not shown) [Compound 42, 5-(2-cyclopropylpyridin-3-yl)-1-methyl-7-(trifluoromethyl)-1,5-dihydro-4H-imidazo[4,5-c][1,8]naphthyridin-4-one] | 2200 nM | 244 nM | < 100 nM | 47 nM |
| Cc1ncccc1-n1c(=O)c2ncn(C)c2c2ccc(Cl)cc21 (atropisomer, axis not shown) [Compound 46, 7-chloro-1-methyl-5-(2-methylpyridin-3-yl)-1,5-dihydro-4H-imidazo[4,5-c]quinolin-4-one] | 473 nM | 87 nM | < 100 nM | 48.5 nM |
| Cn1cnc2c(=O)n(-c3cccnc3C(F)(F)F)c3cc(Cl)ccc3c21 (atropisomer, axis not shown) [Compound 47, 7-chloro-1-methyl-5-(2-(trifluoromethyl)pyridin-3-yl)-1,5-dihydro-4H-imidazo[4,5-c]quinolin-4-one] | > 10000 nM | 232 nM | < 100 nM | 50.2 nM |
| Cn1cnc2c(=O)n(-c3cccnc3C3CC3)c3cc(Cl)ccc3c21 (atropisomer, axis not shown) [Compound 49, 7-chloro-5-(2-cyclopropylpyridin-3-yl)-1-methyl-1,5-dihydro-4H-imidazo[4,5-c]quinolin-4-one] | 1620 nM | 87.9 nM | < 100 nM | 28.1 nM |
| O=c1c2ncoc2c2ccc(C(F)(F)F)nc2n1-c1cccnc1C1CC1 (atropisomer, axis not shown) [Compound 81, 5-(2-cyclopropylpyridin-3-yl)-7-(trifluoromethyl)oxazolo[4,5-c][1,8]naphthyridin-4(5H)-one] | 1940 nM | 186 nM | < 100 nM | 52.3 nM |
| Cc1c(F)cccc1-n1c(=O)c2ncn(C)c2c2ccc(C(F)(F)F)nc21 (single isomer, unassigned) [Compound 43-P2, 5-(3-fluoro-2-methylphenyl)-1-methyl-7-(trifluoromethyl)-1,5-dihydro-4H-imidazo[4,5-c][1,8]naphthyridin-4-one] | 355 nM | 79 nM | < 100 nM | 28.2 nM |
| Cc1ncccc1-n1c(=O)c2ncn(C)c2c2ccc(Cl)cc21 (single isomer, unassigned) [Compound 46-P2, 7-chloro-1-methyl-5-(2-methylpyridin-3-yl)-1,5-dihydro-4H-imidazo[4,5-c]quinolin-4-one] | 214 nM | 33 nM | < 100 nM | 19.8 nM |
| Cn1cnc2c(=O)n(-c3cccnc3C(F)(F)F)c3cc(Cl)ccc3c21 (single isomer, unassigned) [Compound 47-P2, 7-chloro-1-methyl-5-(2-(trifluoromethyl)pyridin-3-yl)-1,5-dihydro-4H-imidazo[4,5-c]quinolin-4-one] | 8330 nM | 130 nM | < 100 nM | 23.3 nM |
| COc1c(F)cccc1-n1c(=O)c2ncn(C)c2c2ccc(C(F)(F)F)nc21 (single isomer, unassigned) [Compound 70-P2, 5-(3-fluoro-2-methoxyphenyl)-1-methyl-7-(trifluoromethyl)-1,5-dihydro-4H-imidazo[4,5-c][1,8]naphthyridin-4-one] | 7940 nM | 490 nM | < 100 nM | 37.9 nM |
| Cn1cnc2c(=O)n(-c3cccc(C#N)c3Cl)c3nc(C(F)(F)F)ccc3c21 (single isomer, unassigned) [Compound 73-P2, 2-chloro-3-(1-methyl-4-oxo-7-(trifluoromethyl)-1,4-dihydro-5H-imidazo[4,5-c][1,8]naphthyridin-5-yl)benzonitrile] | 2210 nM | 194 nM | < 100 nM | 27.3 nM |
| Cc1ncccc1-n1c(=O)c2ncoc2c2ccc(C(F)(F)F)cc21 (single isomer, unassigned) [Compound 82-P2, 5-(2-methylpyridin-3-yl)-7-(trifluoromethyl)oxazolo[4,5-c]quinolin-4(5H)-one] | 271 nM | 50.2 nM | < 100 nM | 23.1 nM |
| Cc1ncccc1-n1c(=O)c2ncoc2c2ccc(Cl)cc21 (single isomer, unassigned) [Compound 83-P2, 7-chloro-5-(2-methylpyridin-3-yl)oxazolo[4,5-c]quinolin-4(5H)-one] | 203 nM | 54.3 nM | < 100 nM | 23.1 nM |
| COc1nc2c(=O)n(-c3ccccc3Cl)c3nc(C(F)(F)F)ccc3c2[nH]1 [Compound 5, 5-(2-chlorophenyl)-2-methoxy-7-(trifluoromethyl)-1,5-dihydro-4H-imidazo[4,5-c][1,8]naphthyridin-4-one] | > 10000 nM | 274 nM | < 100 nM | 41.6 nM |
| O=c1c2[nH]ncc2c2ccc(C(F)(F)F)nc2n1-c1ccccc1Cl [Compound 6, 5-(2-chlorophenyl)-7-(trifluoromethyl)-3,5-dihydro-4H-pyrazolo[3,4-c][1,8]naphthyridin-4-one] | 1110 nM | 288 nM | < 100 nM | 50.1 nM |
| Cn1cnc2c(=O)n(-c3cccnc3C(F)(F)F)c3cc(C(F)(F)F)ccc3c21 [Compound 84, 1-methyl-7-(trifluoromethyl)-5-(2-trifluoromethylpyridin-3-yl)-1,5-dihydro-4H-imidazo[4,5-c]quinolin-4-one] | – | – | < 100 nM | 53.4 nM |
